According to patent publication US6656937B2, “Substituted glutarimides and their use as inhibitors of IL-12 production” (Gruenenthal, GmbH, priority 2000, dated 2003):
Where a name gives a salt, the structure may show the parent alone.

melting point | SMILES
208 °C (dec.) | O=C1CCC(NCc2cc(F)ccc2F)C(=O)N1 (racemic) (as salt: hydrochloride) [Example 2.4, 3-(2,5-difluorobenzylamino) piperidine-2,6-dione]
214 °C (dec.) | COc1ccc(CNC2CCC(=O)NC2=O)c(OC)c1 (racemic) (as salt: hydrochloride) [Example 2.2, 3-(2,4-dimethoxybenzylamino) piperidine-2,6-dione]
256 °C (dec.) | Cc1ccc(CNC2CCC(=O)NC2=O)cc1 (racemic) (as salt: hydrochloride) [Example 2.38, 3-(4-methylbenzylamino) piperidine-2,6-dione]
152 to 158 °C | O=C1CCC(CNc2cccc(C(=O)c3ccccc3)c2)C(=O)N1 (centres unmarked) [Example 11.17, 3-[(3-benzoylphenylamino)methyl]piperidine-2,6-dione]
120 to 125 °C (dec.) | O=C1CCC(NCc2ccc3ccccc3c2)C(=O)N1 (racemic) [Example 2.12, 3-[(naphth-2-ylmethyl)amino]piperidine-2,6-dione]
199 to 201 °C | O=C1CCC(NCc2cccc(OC(F)(F)F)c2)C(=O)N1 (racemic) (as salt: hydrochloride) [Example 2.11, 3-(3-trifluoromethoxybenzylamino) piperidine-2,6-dione]
232 to 233 °C | NC(=O)c1ccccc1CN[C@@H]1CCC(=O)NC1=O (as salt: hydrobromid) [Example 8.12, 2-[(3R)-(2,6-dioxopiperidin-3-ylamino)methyl]benzamide]
230 to 236 °C (dec.) | O=C1CCC(NCc2cc(F)cc(F)c2)C(=O)N1 (racemic) (as salt: hydrochloride) [Example 2.5, 3-(3,5-difluorobenzylamino) piperidine-2,6-dione]
203 to 206 °C | NC(=O)c1ccccc1NCC1CCC(=O)NC1=O (centres unmarked) [Example 11.15, 2-[(2,6-dioxopiperidin-3-ylmethyl)amino]benzamide]
245 to 247 °C | O=C1CCC(NCc2ccccc2F)C(=O)N1 (racemic) (as salt: hydrochloride) [Example 2.29, 3-(2-fluorobenzylamino) piperidine-2,6-dione]
78 °C | O=C1CCC(CSCCc2ccccc2)C(=O)N1 (centres unmarked) [Example 13.2, 3-phenethylsulfanylmethyl piperidine-2,6-dione]
252 to 255 °C | O=C1CCC(NCc2ccc(C(F)(F)F)cc2)C(=O)N1 (racemic) (as salt: hydrochloride) [Example 2.21, 3-(4-trifluoromethylbenzylamino) piperidine-2,6-dione]
253 to 255 °C | O=C1CCC(NCc2ccc(OC(F)(F)F)cc2)C(=O)N1 (racemic) (as salt: hydrochloride) [Example 2.36, 3-(4-trifluoromethoxybenzylamino) piperidine-2,6-dione]
235 to 240 °C | Cc1ccccc1CNC1CCC(=O)NC1=O (racemic) (as salt: hydrochloride) [Example 2.16, 3-(2-methylbenzylamino) piperidine-2,6-dione]
240 to 242 °C | Cc1cccc(CNC2CCC(=O)NC2=O)c1 (racemic) (as salt: hydrochloride) [Example 2.20, 3-(3-methylbenzylamino) piperidine-2,6-dione]
135 to 138 °C | O=C1CCC(CNc2cccc(C(F)(F)F)c2)C(=O)N1 (centres unmarked) [Example 11.2, 3-[(3-trifluoromethylphenylamino)methyl]piperidine-2,6-dione]

melting point | SMILES
241 to 242 °C | O=C1CCC(NCc2ccc(F)cc2)C(=O)N1 (racemic) (as salt: hydrochloride) [Example 2.23, 3-(4-fluorobenzylamino) piperidine-2,6-dione]
241 to 242 °C | NNC(=O)c1ccccc1CN[C@H]1CCC(=O)NC1=O (as salt: hydrobromid) [Example 8.6, 2-[(3S)-(2,6-dioxopiperidin-3-ylamino)methyl]benzoic acid hydrazide]
240 to 242 °C | O=C1CCC(NCc2ccc(Cl)cc2Cl)C(=O)N1 (racemic) (as salt: hydrochloride) [Example 2.28, 3-(2,4-dichlorobenzylamino) piperidine-2,6-dione]
135 to 138 °C | O=C1CCC(CNc2ccc(-c3ccccc3)cc2)C(=O)N1 (centres unmarked) [Example 11.4, 3-(biphenyl-4-ylaminomethyl) piperidine-2,6-dione]
234 to 238 °C | O=C1CCC(NCc2cc(Cl)cc(Cl)c2)C(=O)N1 (racemic) (as salt: hydrochloride) [Example 2.17, 3-(3,5-dichlorobenzylamino) piperidine-2,6-dione]
242 to 246 °C | O=C1CCC(NCc2cc(Cl)ccc2Cl)C(=O)N1 (racemic) (as salt: hydrochloride) [Example 2.40, 3-(2,5-dichlorobenzylamino) piperidine-2,6-dione]
160 °C | CC(=O)c1ccc(NCC2CCC(=O)NC2=O)cc1 (centres unmarked) [Example 11.16, 3-[(4-acetylphenylamino)methyl]piperidine-2,6-dione]
206 to 212 °C (dec.) | O=C1CCC(NCc2cccc(F)c2F)C(=O)N1 (racemic) (as salt: hydrochloride) [Example 2.7, 3-(2,3-difluorobenzylamino) piperidine-2,6-dione]
229 to 232 °C | O=C1CCC(NCc2cccc(Br)c2)C(=O)N1 (racemic) (as salt: hydrochloride) [Example 2.35, 3-(3-bromobenzylamino) piperidine-2,6-dione]
237 to 238 °C | O=C1CCC(NCc2cccc(Cl)c2)C(=O)N1 (racemic) (as salt: hydrochloride) [Example 2.26, 3-(3-chlorobenzylamino) piperidine-2,6-dione]
> 250 °C (dec.) | O=C1CCC(NCc2ccccc2C(F)(F)F)C(=O)N1 (racemic) (as salt: hydrochloride) [Example 2.1, 3-(2-trifluoromethylbenzylamino) piperidine-2,6-dione]
136 to 138 °C | O=C1CC[C@H](NCc2ccccc2C(=O)Nc2ccccc2)C(=O)N1 (as salt: hydrobromid) [Example 8.7, 2-[(3S)-(2,6-dioxopiperidin-3-ylamino)methyl]-N-phenylbenzamide]
263 to 265 °C | O=C1CCC(NCc2cc(C(F)(F)F)cc(C(F)(F)F)c2)C(=O)N1 (racemic) (as salt: hydrochloride) [Example 2.34, 3-[3,5-bis(trifluoromethyl)benzylamino]piperidine-2,6-dione]
221 to 225 °C | O=C1CCC(CNc2ccc(C(c3ccccc3)(c3ccccc3)c3ccccc3)cc2)C(=O)N1 (centres unmarked) [Example 11.6, 3-[(4-tritylphenylamino)methyl]piperidine-2,6-dione]
208 to 215 °C (dec.) | O=C1CCC(NCc2c(F)cccc2F)C(=O)N1 (racemic) (as salt: hydrochloride) [Example 2.3, 3-(2,6-difluorobenzylamino) piperidine-2,6-dione]
246 to 248 °C | O=C1CCC(NCc2cccc(Cl)c2Cl)C(=O)N1 (racemic) (as salt: hydrochloride) [Example 2.32, 3-(2,3-dichlorobenzylamino) piperidine-2,6-dione]
